≈ marks a conversion by molar mass, not a printed value. Like-named read-outs stand apart in the source and are kept apart here.
What was measured:
A. baumannii PBP2 = A. baumannii PBP2 (Acinetobacter baumannii, UniProt D0C8Z9); assay: Bocillin-FL competition binding via gel filtration, A. baumannii PBP2
Method in brief: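 Enzyme was pre-incubated with rising inhibitor concentrations, then Bocillin-FL was added and incubated 15 minutes more. Bound probe was separated by gel filtration and fluorescence read. EC50 came from fitting fraction of PBP labelled versus inhibitor concentration to a Hill equation with ymin, ymax and n.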

A. baumannii CDC-0036 = assay: microbe, parasite or virus in culture; format: cell-based; conditions: Acinetobacter baumannii
[1] = biological target: T1, PBP3 from Pseudomonas aeruginosa (PAO1) (Pseudomonas aeruginosa, UniProt G3XD46); assay: Bocillin-FL fluorescence polarization competition binding, P. aeruginosa PBP3; conditions: Binding affinity to P. aeruginosa PBP3; fluorescence polarization competition binding assay using Bocillin-FL; read-out: P. aeruginosa PBP3 Potency
T1 construct: made in house
T1 sequence (G3XD46 whole entry): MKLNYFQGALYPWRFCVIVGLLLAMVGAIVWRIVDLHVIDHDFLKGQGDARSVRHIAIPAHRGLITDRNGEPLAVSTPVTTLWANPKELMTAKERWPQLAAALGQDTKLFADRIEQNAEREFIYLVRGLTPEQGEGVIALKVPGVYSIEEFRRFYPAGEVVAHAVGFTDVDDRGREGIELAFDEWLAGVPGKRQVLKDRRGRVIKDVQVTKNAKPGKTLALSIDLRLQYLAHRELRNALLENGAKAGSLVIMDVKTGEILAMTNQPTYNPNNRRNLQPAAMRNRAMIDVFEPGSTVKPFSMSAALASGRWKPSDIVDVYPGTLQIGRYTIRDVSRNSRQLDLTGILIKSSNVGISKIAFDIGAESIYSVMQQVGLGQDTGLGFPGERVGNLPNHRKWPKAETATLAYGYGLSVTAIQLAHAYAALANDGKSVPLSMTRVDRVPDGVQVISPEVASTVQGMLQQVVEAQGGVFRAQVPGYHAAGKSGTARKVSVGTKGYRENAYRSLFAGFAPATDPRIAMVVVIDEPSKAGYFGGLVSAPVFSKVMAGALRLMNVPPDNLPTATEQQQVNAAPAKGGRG
Method in brief: (§1)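 Purified PBPs pre-incubated with inhibitor (E. coli PBP3 1.5 μM, 30 min; P. aeruginosa PBP3 0.75 μM, A. baumannii PBP1a 1 μM and PBP3 0.2 μM, 15 min), then Bocillin-FL 0.1 μM (0.05 μM for PBP1a) added; FP read up to 60 min. EC50 = concentration halving bound Bocillin-FL.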

A. baumannii ATCC 19606 = assay: microbe, parasite or virus in culture; format: cell-based; conditions: Acinetobacter baumannii
[2] = tested on: P. aeruginosa (ΔmexAB-oprM); assay: Broth microdilution MIC in iron-depleted CAMHB (IDM); format: cell-based; conditions: Pseudomonas aeruginosa, read-out: Minimum inhibitory concentration, P. aeruginosa ΔmexAB-oprM
A. baumannii CDC-0045 = assay: microbe, parasite or virus in culture; format: cell-based; conditions: Acinetobacter baumannii
[3] = biological target: T2, PBP3 from Acinetobacter baumannii (ATCC 19606) (Acinetobacter baumannii, UniProt A0ABX6CK25); assay: Bocillin-FL fluorescence polarization competition binding, A. baumannii PBP3; conditions: fluorescence polarization competition binding assay using Bocillin-FL; read-out: A. baumannii PBP3 Potency
T2 sequence (A0ABX6CK25 64-610): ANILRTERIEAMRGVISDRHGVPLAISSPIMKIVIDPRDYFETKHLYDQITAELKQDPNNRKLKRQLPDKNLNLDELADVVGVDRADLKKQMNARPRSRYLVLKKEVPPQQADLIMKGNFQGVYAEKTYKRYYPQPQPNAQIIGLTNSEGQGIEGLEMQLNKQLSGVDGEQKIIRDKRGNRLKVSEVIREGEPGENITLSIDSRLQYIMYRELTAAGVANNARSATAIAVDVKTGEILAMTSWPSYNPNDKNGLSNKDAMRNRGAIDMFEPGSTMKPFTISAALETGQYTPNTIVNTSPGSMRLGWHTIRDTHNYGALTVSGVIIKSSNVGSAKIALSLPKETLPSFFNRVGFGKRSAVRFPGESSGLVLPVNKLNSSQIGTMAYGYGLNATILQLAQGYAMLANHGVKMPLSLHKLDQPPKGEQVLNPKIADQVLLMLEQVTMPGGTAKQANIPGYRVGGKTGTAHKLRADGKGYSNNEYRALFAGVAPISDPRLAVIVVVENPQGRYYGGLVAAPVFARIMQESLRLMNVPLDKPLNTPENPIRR
Method in brief: as §1

P. aeruginosa CDC-0110 = assay: microbe, parasite or virus in culture; format: cell-based; conditions: Pseudomonas aeruginosa, CDC0110, read-out: Minimum inhibitory concentration, P. aeruginosa CDC-0110
[4] = CDC0036, read-out: Minimum inhibitory concentration (MIC), A. baumannii CDC-0036
[5] = ATCC19606, read-out: Minimum inhibitory concentration (MIC), A. baumannii ATCC 19606
[6] = CDC0045, read-out: Minimum inhibitory concentration (MIC), A. baumannii CDC-0045

A. baumannii PBP2, sequence (D0C8Z9 whole entry): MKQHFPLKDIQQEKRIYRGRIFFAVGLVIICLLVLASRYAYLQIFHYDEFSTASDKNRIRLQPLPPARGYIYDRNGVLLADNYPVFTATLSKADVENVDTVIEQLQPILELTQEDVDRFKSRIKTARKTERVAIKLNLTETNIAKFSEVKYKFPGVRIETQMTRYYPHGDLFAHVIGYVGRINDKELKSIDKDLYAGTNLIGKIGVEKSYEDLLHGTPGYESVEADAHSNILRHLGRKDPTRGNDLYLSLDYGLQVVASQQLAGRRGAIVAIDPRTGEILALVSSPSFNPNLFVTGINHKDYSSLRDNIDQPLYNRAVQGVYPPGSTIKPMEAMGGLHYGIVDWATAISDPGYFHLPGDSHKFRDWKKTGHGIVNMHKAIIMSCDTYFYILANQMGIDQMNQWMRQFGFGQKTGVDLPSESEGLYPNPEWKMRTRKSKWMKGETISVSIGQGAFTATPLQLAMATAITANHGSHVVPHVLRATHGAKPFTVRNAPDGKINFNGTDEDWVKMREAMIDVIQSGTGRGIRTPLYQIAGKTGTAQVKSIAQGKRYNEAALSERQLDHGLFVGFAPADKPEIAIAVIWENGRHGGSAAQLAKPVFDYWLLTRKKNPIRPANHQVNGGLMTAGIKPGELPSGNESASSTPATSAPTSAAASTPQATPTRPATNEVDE

Row | SMILES | EC50 (A. baumannii PBP2) [µM] | MIC (A. baumannii CDC-0036; [4]) [µg/mL] | IC50 [1] [µM] | MIC (A. baumannii ATCC 19606; [5]) [µg/mL] | MIC ([2]; iron-depleted CAMHB (IDM), […]) [µg/mL] | MIC (A. baumannii CDC-0045; [6]) [µg/mL] | IC50 [3] [µM] | MIC (A. baumannii CDC-0036; CDC0036, read-out: MIC, A. baumannii CDC-0036) [µg/mL] | MIC (P. aeruginosa CDC-0110) [µg/mL] | MIC (A. baumannii ATCC 19606; ATCC19606, read-out: MIC, A. baumannii ATCC 19606) [µg/mL] | MIC (A. baumannii CDC-0045; CDC0045, read-out: MIC, A. baumannii CDC-0045) [µg/mL] | MIC [2] [µg/mL]
1 | O=C(O)c1c(F)ccc2c1OB(O)[C@@H](NC(=O)C(NC(=O)N1CCN(C3CCN(C(=O)Nc4ccc(Cl)c(O)c4F)CC3)C(=O)C1=O)c1cc(F)c(O)c(O)c1Cl)C2 (stereo partly drawn) [Example 489, (3R)-3-(2-(4-(1-((4-chloro-2-fluoro-3-hydroxyphenyl)carbamoyl)piperidin-4-yl)-2,3-dioxopiperazine-1-carboxamido)-2-(2-chloro-5-fluoro-3,4-dihydroxyphenyl)acetamido)-7-fluoro-2-hydroxy-3,4-dihydro-2H-benzo[e][1,2]oxaborinine-8-carboxylic acid] | < 10 | 2 to 4 (≈ 2.34 to 4.69 µM) | < 10 | < 1 | < 1 | < 1 | < 10 | – | – | – | – | –
2 | O=C(NCCN1CCN(C(=O)N[C@@H](C(=O)N[C@H]2Cc3ccc(F)c(C(=O)O)c3OB2O)c2ccc(P(=O)(O)O)cc2)C(=O)C1=O)c1ccc(O)c(O)c1Cl [Example 503, (R)-3-((R)-2-(4-(2-(2-chloro-3,4-dihydroxybenzamido)ethyl)-2,3-dioxopiperazine-1-carboxamido)-2-(4-phosphonophenyl)acetamido)-7-fluoro-2-hydroxy-3,4-dihydro-2H-benzo[e][1,2]oxaborinine-8-carboxylic acid] | 10 to 50 | 2 to 4 (≈ 2.53 to 5.05 µM) | < 10 | < 1 | < 1 | 2 to 4 (≈ 2.53 to 5.05 µM) | – | – | – | – | – | –
3 | O=C(O)c1c(F)ccc2c1OB(O)[C@@H](NC(=O)[C@H](NC(=O)N1CCN(C3CCN(C(=O)Nc4ccc(O)c(O)c4Cl)CC3)C1=O)c1ccc(P(=O)(O)O)cc1)C2 (single isomer, unassigned) [Example 497] | < 10 | < 1 | < 10 | < 1 | < 1 | < 1 | – | – | – | – | – | –
4 | O=C(O)c1c(F)ccc2c1OB(O)[C@@H](NC(=O)[C@H](NC(=O)N1CCN(C3CCN(C(=O)c4cc(O)c(O)c(Cl)c4)CC3)C1=O)c1ccc(P(=O)(O)O)cc1)C2 [Example 496, (R)-3-((R)-2-(3-(1-(3-chloro-4,5-dihydroxybenzoyl)piperidin-4-yl)-2-oxoimidazolidine-1-carboxamido)-2-(4-phosphonophenyl)acetamido)-7-fluoro-2-hydroxy-3,4-dihydro-2H-benzo[e][1,2]oxaborinine-8-carboxylic acid] | < 10 | < 1 | < 10 | < 1 | < 1 | < 1 | – | – | – | – | – | –
5 | O=C(O)c1c(F)ccc2c1OB(O)[C@@H](NC(=O)[C@H](NC(=O)N1CCN(Cc3ccc(O)c(O)c3Cl)C(=O)C1=O)c1cc(F)c(P(=O)(O)O)c(F)c1)C2 [Example 502, (R)-3-((R)-2-(4-(2-chloro-3,4-dihydroxybenzyl)-2,3-dioxopiperazine-1-carboxamido)-2-(3,5-difluoro-4-phosphonophenyl)acetamido)-7-fluoro-2-hydroxy-3,4-dihydro-2H-benzo[e][1,2]oxaborinine-8-carboxylic acid] | < 10 | < 1 | < 10 | < 1 | < 1 | < 1 | – | – | – | – | – | –
6 | O=C(O)c1c(F)ccc2c1OB(O)[C@@H](NC(=O)[C@H](NC(=O)N1CCN(C3CCN(C(=O)c4ccc(O)c(O)c4Cl)CC3)C1=O)c1ccc(P(=O)(O)O)cc1)C2 [Example 494, (R)-3-((R)-2-(3-(1-(2-chloro-3,4-dihydroxybenzoyl)piperidin-4-yl)-2-oxoimidazolidine-1-carboxamido)-2-(4-phosphonophenyl)acetamido)-7-fluoro-2-hydroxy-3,4-dihydro-2H-benzo[e][1,2]oxaborinine-8-carboxylic acid] | 10 to 50 | < 1 | < 10 | < 1 | < 1 | < 1 | – | – | – | – | – | –
7 | O=C(O)c1c(F)ccc2c1OB(O)[C@@H](NC(=O)C(NC(=O)N1CCN(S(=O)(=O)c3ccc(O)c(O)c3Cl)C1=O)c1ccc(P(=O)(O)O)cc1)C2 (stereo partly drawn) [Example 505, (3R)-3-(2-(3-((2-chloro-3,4-dihydroxyphenyl)sulfonyl)-2-oxoimidazolidine-1-carboxamido)-2-(4-phosphonophenyl)acetamido)-7-fluoro-2-hydroxy-3,4-dihydro-2H-benzo[e][1,2]oxaborinine-8-carboxylic acid] | < 10 | < 1 | < 10 | < 1 | < 1 | < 1 | – | – | – | – | – | –
8 | O=C(O)c1c(F)ccc2c1OB(O)[C@@H](NC(=O)[C@@H](NC(=O)N1CCN(C3CCN(C(=O)c4ccc(O)cc4)CC3)C1=O)c1cc(F)c(O)c(O)c1Cl)C2 (single isomer, unassigned) [Example 462] | – | – | 10 to 50 | – | 2 to 4 (≈ 2.64 to 5.28 µM) | – | < 10 | 32 to 64 (≈ 42.2 to 84.4 µM) | 8 to 16 (≈ 10.6 to 21.1 µM) | 8 to 16 (≈ 10.6 to 21.1 µM) | 32 to 64 (≈ 42.2 to 84.4 µM) | –
9 | O=C(O)c1c(F)ccc2c1OB(O)[C@@H](NC(=O)[C@H](NC(=O)N1CCN(S(=O)(=O)c3ccc(O)c(O)c3Cl)C1=O)c1ccc(P(=O)(O)O)cc1)C2 [Example 506, (R)-3-((R)-2-(3-((2-chloro-3,4-dihydroxyphenyl)sulfonyl)-2-oxoimidazolidine-1-carboxamido)-2-(4-phosphonophenyl)acetamido)-7-fluoro-2-hydroxy-3,4-dihydro-2H-benzo[e][1,2]oxaborinine-8-carboxylic acid] | – | < 1 | < 10 | < 1 | < 1 | < 1 | – | – | – | – | – | –
10 | O=C(O)c1c(F)ccc2c1OB(O)[C@@H](NC(=O)[C@H](NC(=O)N1CCN(C3CCN(C(=O)c4cc(F)c(O)c(O)c4Cl)CC3)C1=O)c1ccc(P(=O)(O)O)cc1)C2 (single isomer, unassigned) [Example 495] | < 10 | < 1 | < 10 | < 1 | < 1 | < 1 | – | – | – | – | – | –
11 | O=C(O)c1c(F)ccc2c1OB(O)[C@@H](NC(=O)[C@H](NC(=O)N1CCN(C3CCN(C(=O)Nc4cc(F)c(O)c(O)c4Cl)CC3)C1=O)c1ccc(P(=O)(O)O)cc1)C2 (single isomer, unassigned) [Example 500] | < 10 | < 1 | < 10 | < 1 | < 1 | < 1 | – | – | – | – | – | –
12 | O=C(O)c1cccc2c1OB(O)[C@@H](NC(=O)[C@H](NC(=O)N1CCN(Cc3cc(F)c(O)c(O)c3Cl)C(=O)C1=O)c1ccc(P(=O)(O)O)cc1)C2 [Example 504, (R)-3-((R)-2-(4-(2-chloro-5-fluoro-3,4-dihydroxybenzyl)-2,3-dioxopiperazine-1-carboxamido)-2-(4-phosphonophenyl)acetamido)-2-hydroxy-3,4-dihydro-2H-benzo[e][1,2]oxaborinine-8-carboxylic acid] | < 10 | < 1 | – | < 1 | – | < 1 | – | – | – | – | – | < 1
13 | O=C(O)c1cccc2c1OB(O)[C@@H](NC(=O)[C@H](NC(=O)N1CCN(S(=O)(=O)c3ccc(O)c(O)c3Cl)C1=O)c1ccc(P(=O)(O)O)cc1)C2 [Example 509, (R)-3-((R)-2-(3-((2-chloro-3,4-dihydroxyphenyl)sulfonyl)-2-oxoimidazolidine-1-carboxamido)-2-(4-phosphonophenyl)acetamido)-2-hydroxy-3,4-dihydro-2H-benzo[e][1,2]oxaborinine-8-carboxylic acid] | – | < 1 | < 10 | < 1 | < 1 | < 1 | – | – | – | – | – | –

Source: patent publication US20240270762A1, “PENICILLIN-BINDING PROTEIN INHIBITORS” (priority 2021, published 2024)
